In patent publication US8716287B2, “Pharmaceutical compounds” (Sentinel Oncology Limited, priority 2010, dated 2014):
Entries after “also recorded” stand apart in the source; their conditions may differ. Where a name gives a salt, the structure may show the parent alone. Read-outs that look alike come from different tables or passages of the source.

Experiments:
Chk-1 kinase = Chk-1 kinase (Homo sapiens (Human), UniProt O14757); assay: Chk-1 kinase inhibiting activity (33P-ATP filter assay, CHKtide substrate); type: biochemical
Sequence of Chk-1 kinase (O14757 whole entry): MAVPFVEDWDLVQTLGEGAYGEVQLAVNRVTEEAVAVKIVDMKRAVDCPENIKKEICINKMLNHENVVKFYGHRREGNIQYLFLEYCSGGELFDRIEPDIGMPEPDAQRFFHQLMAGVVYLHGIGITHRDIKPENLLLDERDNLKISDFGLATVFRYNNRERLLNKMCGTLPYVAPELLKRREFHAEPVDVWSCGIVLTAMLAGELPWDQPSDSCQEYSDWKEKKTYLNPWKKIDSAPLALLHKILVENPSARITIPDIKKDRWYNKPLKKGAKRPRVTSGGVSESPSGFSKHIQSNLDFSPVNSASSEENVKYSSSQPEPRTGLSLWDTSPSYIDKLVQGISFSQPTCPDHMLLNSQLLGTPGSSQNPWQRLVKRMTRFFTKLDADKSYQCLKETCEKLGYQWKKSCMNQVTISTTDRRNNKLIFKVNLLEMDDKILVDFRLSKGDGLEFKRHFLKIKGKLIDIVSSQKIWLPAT
Protocol: The compounds of the invention were tested for activity against Chk-1 kinase using the materials and protocols set out below.
Base Reaction buffer: 20 mM Hepes (pH 7.5), 10 mM MgCl2, 1 mM EGTA, 0.02% Brij35, 0.02 mg/ml BSA, 0.1 mM Na3VO4, 2 mM DTT, 1% DMSO
*Required cofactors are added individually to each kinase reaction
(i) Prepare indicated substrate in freshly prepared Base Reaction Buffer
(ii) Deliver any required cofactors to the substrate solution above
(iii) Deliver indicated kinase into the substrate solution and gently mix
(iv) Deliver compounds in DMSO into the kinase reaction mixture
(v) Deliver ^33P-ATP (specific activity 0.01 μCi/μl final) into the reaction mixture to initiate the reaction.
(vi) Incubate kinase reaction for 120 minutes at room temperature
(vii) Reactions are spotted onto P81 ion exchange paper (Whatman #3698-915)
(viii) Wash filters extensively in 0.1% phosphoric acid.
(ix) Dry filters and measure counts in scintillation counter
Recombinant full length construct, N-terminal GST tagged, purified from insect cells.
No special measures were taken to activate this kinase.
Final concentration in assay=0.5 nM
Peptide sequence: [[…]]
Final concentration in assay=20 μM
No additional cofactors are added to the reaction mixture

HT29 cells = assay: Sensitisation of HT29 cells to SN38 (Alamar blue cell growth); type: cell-based, human; conditions: for Cell potentiation factor: SN38 sensitisation assay in HT-29 cells, compound at 3 μM; for fold shift in the IC50 value of SN38: HT29 cells
Protocol: Studies were carried out to test the sensitising effect of compounds of the invention on the ability of the DNA damaging compound 7-ethyl-10-hydroxycamptothecin (SN38), an active metabolite of the anti-cancer drug irinotecan, to inhibit cell growth in HT29 cells.
The following protocol was used:
(a) HT29 cells were seeded in 96-well plates at a concentration of 3000 cells per well and allowed to adhere overnight prior to addition of compound or vehicle control.
(b) SN38 was prepared from a 10 mM DMSO stock to give a final concentration range of 1 μM, 300 nM, 100 nM, 30 nM, 10 nM, 3 nM, 1 nM, and vehicle control.
(c) Test compounds were prepared from 10 mM DMSO stocks to typically give a final concentration range of 3 μM, 1 μM, 0.3 μM. 0.1 μM, 0.03 μM and vehicle control. The final DMSO content was 0.4%.
(d) Test compounds were incubated with the cells for 72 h at 37° C. 5% CO2 in a humidified atmosphere.
(e) Alamar blue 10% (v/v) was then added and incubated for a further 6 h, and fluorescent product detected using the BMG FLUOstar plate reader.
(f) Data were analysed using a 4-parameter logistic equation in GraphPad Prism.
Sensitisation is determined by the enhancement in IC50 of SN38 by the addition of the Chk-1 kinase inhibitor. In the protocol described above, the IC50 for SN-38 is determined the presence of varying doses of the Chk-1 inhibitor. The fold shift represents a decrease in IC50 for SN-38 at a dose of Chk-1 inhibitor that has no effect by itself.

[1] = comparative tests, Example 70, read-out: Chk-1 IC50
[2] = Chk-1 kinase, Table 3, read-out: IC50
[3] = ranges given, read-out: IC50 values against Chk-1 kinase

Row | SMILES | IC50 (Chk-1 kinase; [1]) | IC50 (Chk-1 kinase; [2]) | IC50 (Chk-1 kinase; [3]) | fold improvement in potency against Chk-1 enzyme (Chk-1 kinase; relative to Example 30 (alkylene chain 1 to 2 carbon atoms)) | Cell potentiation factor (HT29 cells) | fold shift in the IC50 value of SN38 (HT29 cells; test compound at 3 μM) | fold shift in the IC50 value of SN38 (HT29 cells; test compound at 1 μM)
1 | N#Cc1cnc(NC(=O)Nc2ccc(CCNCc3ccccc3)cc2)cn1 [Example 1, 1-[4-(2-Benzylamino-ethyl)-phenyl]-3-(5-cyano-pyrazin-2-yl)-urea] | 99 nM | 200 nM | 100 to 1000 nM | ~3 fold | 4 fold | three | –
2 | N#Cc1cnc(NC(=O)Nc2ccc(CCNCc3ccc(F)cc3)cc2)cn1 [Example 2, 1-(5-Cyano-pyrazin-2-yl)-3-{4-[2-(4-fluoro-benzylamino)-ethyl]-phenyl}-urea] | – | 44 nM | 10 to 100 nM | – | – | three | –
3 | N#Cc1cnc(NC(=O)Nc2ccc(CCNCc3ccc(F)cc3F)cc2)cn1 [Example 3, 1-(5-Cyano-pyrazin-2-yl)-3-{4-[2-(2,4-difluoro-benzylamino)-ethyl]-phenyl}-urea] | – | 179 nM | 100 to 1000 nM | – | – | three | –
4 | N#Cc1cnc(NC(=O)Nc2ccc(CCNCc3ccc(F)cc3F)c(Cl)c2)cn1 [Example 5, 1-{3-Chloro-4-[2-(2,4-difluoro-benzylamino)-ethyl]-phenyl}-3-(5-cyano-pyrazin-2-yl)-urea] | – | 38 nM | 10 to 100 nM | – | – | three | –
5 | N#Cc1cnc(NC(=O)Nc2ccc(CCNCc3ccc(Cl)cc3)c(Cl)c2)cn1 [Example 8, 1-{3-Chloro-4-[2-(4-chloro-benzylamino)-ethyl]-phenyl}-3-(5-cyano-pyrazin-2-yl)-urea] | – | 11 nM | 10 to 100 nM | – | – | three; also recorded: greater than ten | –
6 | N#Cc1cnc(NC(=O)Nc2ccc(CCNCc3ccc(OC(F)(F)F)cc3)c(Cl)c2)cn1 [Example 14, 1-{3-Chloro-4-[2-(4-trifluoromethoxy-benzylamino)-ethyl]-phenyl}-3-(5-cyano-pyrazin-2-yl)-urea] | – | 68 nM | 10 to 100 nM | – | – | three | –
7 | N#Cc1cnc(NC(=O)Nc2ccc(CCNCc3ccc(C(F)(F)F)cc3)c(Cl)c2)cn1 [Example 17, 1-{3-Chloro-4-[2-(4-trifluoromethyl-benzylamino)-ethyl]-phenyl}-3-(5-cyano-pyrazin-2-yl)-urea hydrochloride] | – | 78 nM | 10 to 100 nM | – | – | – | two
8 | COc1ccccc1CNCc1ccc(NC(=O)Nc2cnc(C#N)cn2)c(OC)c1 [Example 62, 1-(5-Cyano-pyrazin-2-yl)-3-{2-methoxy-4-[(2-methoxy-benzylamino)-methyl]-phenyl}-urea] | – | 7.8 nM | < 10 nM | – | – | – | –
9 | COc1cc(CNCc2ccc(F)cc2)c(Cl)cc1NC(=O)Nc1cnc(C#N)cn1 [Example 63, 1-{5-Chloro-4-[(4-fluoro-benzylamino)-methyl]-2-methoxy-phenyl}-3-(5-cyano-pyrazin-2-yl)-urea hydrochloride] | – | 9.8 nM | < 10 nM | – | – | – | –
10 | COc1cc(CCNCc2ccc(N3CCNCC3)cc2)c(Cl)cc1NC(=O)Nc1cnc(C#N)cn1 [Example 64, 1-{5-Chloro-2-methoxy-4-[2-(4-piperazin-1-yl-benzylamino)-ethyl]-phenyl}-3-(5-cyano-pyrazin-2-yl)-urea hydrochloride] | – | 0.03 nM | < 10 nM | – | – | – | –
11 | COc1cccc([C@H](C)NCCc2cc(OC)c(NC(=O)Nc3cnc(C#N)cn3)cc2Cl)c1 [Example 65, 1-(5-Chloro-2-methoxy-4-{2-[(S)-1-(3-methoxy-phenyl)-ethylamino]-ethyl}-phenyl)-3-(5-cyano-pyrazin-2-yl)-urea hydrochloride] | – | 0.73 nM | < 10 nM | – | – | – | –

More lines, main results first:

Row | IC50 (Chk-1 kinase; [1]) | IC50 (Chk-1 kinase; [2]) | IC50 (Chk-1 kinase; [3]) | fold improvement in potency against Chk-1 enzyme (Chk-1 kinase; relative to Example 30 (alkylene chain 1 to 2 carbon atoms)) | SMILES | Cell potentiation factor (HT29 cells) | fold shift in the IC50 value of SN38 (HT29 cells; test compound at 3 μM) | fold shift in the IC50 value of SN38 (HT29 cells; test compound at 1 μM)
12 | 99 nM | – | – | – | COc1cc(CNCc2ccccc2)ccc1NC(=O)Nc1cnc(C)cn1 [Compound 338, reference compound] | 5 fold | – | –
13 | – | 26 nM | 10 to 100 nM | – | N#Cc1cnc(NC(=O)Nc2ccc(OCCNCc3ccc(F)cc3F)c(Cl)c2)cn1 [Example 6, 1-{3-Chloro-4-[2-(2,4-difluoro-benzylamino)-ethoxy]-phenyl}-3-(5-cyano-pyrazin-2-yl)-urea] | – | three | –
14 | – | 16 nM | 10 to 100 nM | – | N#Cc1cnc(NC(=O)Nc2ccc(CCNCCc3ccc(F)cc3)c(Cl)c2)cn1 [Example 7, 1-(3-Chloro-4-(2-(4-fluorophenethylamino)ethyl)phenyl)-3-(5-cyanopyrazin-2-yl)urea] | – | – | two
15 | – | 2 nM | < 10 nM | – | N#Cc1cnc(NC(=O)Nc2ccc(CCNCc3cccc(F)c3)c(Cl)c2)cn1 [Example 9, 1-{3-Chloro-4-[2-(3-fluoro-benzylamino)-ethyl]-phenyl}-3-(5-cyano-pyrazin-2-yl)-urea] | – | three; also recorded: greater than ten | –
16 | – | 62 nM | 10 to 100 nM | – | N#Cc1cnc(NC(=O)Nc2ccc(CCNCc3ccccc3Cl)c(Cl)c2)cn1 [Example 10, 1-{3-Chloro-4-[2-(2-chloro-benzylamino)-ethyl]-phenyl}-3-(5-cyano-pyrazin-2-yl)-urea] | – | three | –
17 | – | 146 nM | 100 to 1000 nM | – | CN(CCc1ccc(NC(=O)Nc2cnc(C#N)cn2)cc1Cl)Cc1ccc(F)cc1 [Example 11, 1-(3-Chloro-4-{2-[(4-fluoro-benzyl)-methyl-amino]-ethyl}-phenyl)-3-(5-cyano-pyrazin-2-yl)-urea] | – | three | –
18 | – | 11 nM | 10 to 100 nM | – | COc1cccc(CNCCc2ccc(NC(=O)Nc3cnc(C#N)cn3)cc2Cl)c1 [Example 12, 1-{3-Chloro-4-[2-(3-methoxy-benzylamino)-ethyl]-phenyl}-3-(5-cyano-pyrazin-2-yl)-urea] | – | three; also recorded: greater than ten | –
19 | – | 37 nM | 10 to 100 nM | – | N#Cc1cnc(NC(=O)Nc2ccc(CCNCc3cccc(Cl)c3)c(Cl)c2)cn1 [Example 13, 1-{3-Chloro-4-[2-(3-chloro-benzylamino)-ethyl]-phenyl}-3-(5-cyano-pyrazin-2-yl)-urea hydrochloride] | – | – | two
20 | – | 3.5 nM | < 10 nM | – | COc1ccc(CNCCc2ccc(NC(=O)Nc3cnc(C#N)cn3)cc2Cl)cc1 [Example 15, 1-{3-Chloro-4-[2-(4-methoxy-benzylamino)-ethyl]-phenyl}-3-(5-cyano-pyrazin-2-yl)-urea] | – | three; also recorded: greater than ten | –
21 | – | 13 nM | 10 to 100 nM | – | COc1ccccc1CNCCc1ccc(NC(=O)Nc2cnc(C#N)cn2)cc1Cl [Example 16, 1-{3-Chloro-4-[2-(2-methoxy-benzylamino)-ethyl]-phenyl}-3-(5-cyano-pyrazin-2-yl)-urea] | – | – | two
22 | – | 21 nM | 10 to 100 nM | – | C[C@H](NCCc1ccc(NC(=O)Nc2cnc(C#N)cn2)cc1Cl)c1ccc(F)cc1 [Example 18, 1-(3-Chloro-4-{2-[(S)-1-(4-fluoro-phenyl)-ethylamino]-ethyl}-phenyl)-3-(5-cyano-yrazin-2-yl)-urea hydrochloride] | – | – | two
23 | 8 nM | 1.2 nM | < 10 nM | – | COc1cc(CCNCc2cccc(F)c2)c(Cl)cc1NC(=O)Nc1cnc(C#N)cn1 [Example 19, 1-{5-Chloro-4-[2-(3-fluoro-benzylamino)-ethyl]-2-methoxy-phenyl}-3-(5-cyano-pyrazin-2-yl)-urea hydrochloride] | 50 fold | – | –
24 | – | 11 nM | 10 to 100 nM | – | N#Cc1cnc(NC(=O)Nc2ccc(CCNCc3ccccc3F)c(Cl)c2)cn1 [Example 23, 1-{3-Chloro-4-[2-(2-fluoro-benzylamino)-ethyl]-phenyl}-3-(5-cyano-pyrazin-2-yl)-urea] | – | three; also recorded: greater than ten | –
25 | – | 7.5 nM | < 10 nM | – | COc1cccc(CNCc2ccc(NC(=O)Nc3cnc(C#N)cn3)c(OC)c2)c1 [Example 61, 1-(5-Cyano-pyrazin-2-yl)-3-{2-methoxy-4-[(3-methoxy-benzylamino)-methyl]-phenyl}-urea hydrochloride] | – | – | –
